Experimental data from US9821002B2, “Method for alleviating radiation injury with isorhamnetin-3-O-β-D-glucoside” (Sinotai Oncology Associate., Ltd., priority 2015, dated 2017).

System: BNL CL.2 cells
Test: Clonogenic assay after X-ray irradiation
Format: cell-based, mouse
Details: 30 μM, 2 h pretreatment, X-ray 2, 4, 6 Gy, colonies after two weeks
Source text: Eight groups of BNL CL.2 cells (i.e., a normal control group referred to as Normal Control Group 1-A, an isorhamnetin-3-O-β-D-glucoside group referred to as Isorhamnetin-3-O-β-D-glucoside Group 1-A, three X-ray control groups referred to as X-Ray Control Groups 1-A to 3-A, and three experimental groups referred to as Experimental Groups 1-A to 3-A) and eight groups of NMuMG cells (i.e., a normal control group referred to as Normal Control Group 1-B, an isorhamnetin-3-O-β-D-glucoside group referred to as Isorhamnetin-3-O-β-D-glucoside Group 1-B, three X-ray control groups referred to as X-Ray Control Groups 1-B to 3-B, and three experimental groups referred to as Experimental Groups 1-B to 3-B) were prepared based on the procedure set forth in “Source and cultivation of cell lines” of “Experimental materials”. Specifically, BNL CL.2 cells in each group were cultivated using 5 mL of a corresponding medium shown in Table 1 and a 6-cm Petri dish in an amount of 2×10^5 cells per dish. Likewise, NMuMG cells in each group were cultivated using 5 mL of a corresponding medium shown in Table 1 and a 6-cm Petri dish in an amount of 2.5×10^5 cells per dish. The cultivation was conducted in an incubator (37° C., 5% CO2) for 24 hours. […]

Structure (SMILES): COc1cc(-c2oc3cc(O)cc(O)c3c(=O)c2O[C@@H]2O[C@H](CO)[C@@H](O)[C@H](O)[C@H]2O)ccc1O [isorhamnetin-3-O-β-D-glucoside]
- survival fraction (clonogenic assay) versus X-ray control group: higher than that of the X-ray control group
